Measured values published in article PMC10023787, “Trio-pharmacophore DNA-encoded chemical library for simultaneous selection of fragments and linkers” (Nature Communications, 2023).
Read-outs that look alike come from different tables or passages of the source. Each block holds one molecule with its values, some of them ahead of it.

Experiments:
[1] = target: T1, MMP-2 (Homo sapiens, UniProt P08253); assay: MMP-2 inhibition assay (fluorogenic peptide substrate); assay type: biochemical; settings: for IC50: n.d: not detected
T1 construct: purchased Sino Biological 10082-HNAH
T1 sequence (P08253 110-660): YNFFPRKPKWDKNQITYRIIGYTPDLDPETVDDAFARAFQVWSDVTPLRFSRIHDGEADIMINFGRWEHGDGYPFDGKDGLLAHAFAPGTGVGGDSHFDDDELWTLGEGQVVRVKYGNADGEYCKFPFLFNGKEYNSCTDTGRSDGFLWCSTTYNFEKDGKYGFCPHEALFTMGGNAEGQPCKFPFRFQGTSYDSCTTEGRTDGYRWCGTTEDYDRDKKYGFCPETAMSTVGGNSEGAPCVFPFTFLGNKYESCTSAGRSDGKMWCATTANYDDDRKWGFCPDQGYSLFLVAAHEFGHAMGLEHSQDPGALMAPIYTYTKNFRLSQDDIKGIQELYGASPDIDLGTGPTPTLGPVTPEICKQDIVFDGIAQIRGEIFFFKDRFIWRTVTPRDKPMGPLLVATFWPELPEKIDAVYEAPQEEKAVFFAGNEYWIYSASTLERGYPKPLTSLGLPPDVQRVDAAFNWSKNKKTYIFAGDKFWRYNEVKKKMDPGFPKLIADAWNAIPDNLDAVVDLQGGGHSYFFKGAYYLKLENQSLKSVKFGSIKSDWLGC
Outline: (§1)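 Human proMMP-2 and proMMP-9 were activated with 1 mM APMA for 2 h at 37 °C, then used at 6.5 nM (MMP-2) or 10 nM (MMP-9) final in Tris/NaCl/CaCl2/Brij 35 buffer, pH 7.5. After 30 min preincubation with compound at RT, 25 μM FRET peptide substrate was added and fluorescence (ex 280/em 360 nm) followed for 30 min. IC50 came from logistic fits of Vmax.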

[2] = target: T2, MMP-9 (Homo sapiens, UniProt P14780); assay: MMP-9 inhibition assay (fluorogenic peptide substrate); assay type: biochemical; design: remaining enzyme activity (% of control): scale not given here
T2 construct: purchased Sino Biological 10327-HNAH
Outline: as §1

[3] = mean ± SE, Fig. 5d unit inferred, µM, read-out: IC50
[4] = mean ± SE; n.d: not detected; Fig. 5e prints no unit, µM; read-out: IC50
[5] = Figure 5d, fragment combination joined by linker, read-out: MMP2 IC50
[6] = Figure 5d; fragment combination joined by linker; n.d: not detected; read-out: MMP9 IC50

T2 sequence (P14780 107-707 limits assumed): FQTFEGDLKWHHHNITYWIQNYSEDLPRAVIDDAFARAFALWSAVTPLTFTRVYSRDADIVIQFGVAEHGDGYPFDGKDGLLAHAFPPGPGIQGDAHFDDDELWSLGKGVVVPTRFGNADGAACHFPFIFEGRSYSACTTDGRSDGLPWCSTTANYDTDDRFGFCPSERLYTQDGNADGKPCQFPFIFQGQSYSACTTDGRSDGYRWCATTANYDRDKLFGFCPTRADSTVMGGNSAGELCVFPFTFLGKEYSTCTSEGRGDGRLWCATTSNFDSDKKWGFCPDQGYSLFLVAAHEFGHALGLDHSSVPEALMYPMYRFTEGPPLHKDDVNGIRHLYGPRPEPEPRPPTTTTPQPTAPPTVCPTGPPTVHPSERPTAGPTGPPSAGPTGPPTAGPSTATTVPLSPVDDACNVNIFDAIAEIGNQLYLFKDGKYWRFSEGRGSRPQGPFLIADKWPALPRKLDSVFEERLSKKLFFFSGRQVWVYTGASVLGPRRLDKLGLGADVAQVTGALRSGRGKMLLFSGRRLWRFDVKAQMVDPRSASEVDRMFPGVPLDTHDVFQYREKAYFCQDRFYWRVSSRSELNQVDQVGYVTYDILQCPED

remaining activity (%) ([1]; MMP-2, concentration 0.0156 µM): 100.00 | remaining activity (%) ([1]; MMP-2, concentration 0.08 µM): 92.98 | remaining activity (%) ([1]; MMP-2, concentration 0.39 µM): 98.13 | remaining activity (%) ([1]; MMP-2, concentration 1.95 µM): 86.92 | remaining activity (%) ([1]; MMP-2, concentration 9.75 µM): 82.64 | remaining activity (%) ([1]; MMP-2, concentration 48.76 µM): 53.90 | remaining activity (%) ([1]; MMP-2, concentration 243.80 µM): 16.08 | remaining activity (%) ([1]; MMP-2, concentration 1219.00 µM): 0.00 | IC50 [1, 3]: 59.9 ± 15.7 µM | remaining enzyme activity (% of control) ([2]; MMP-9; concentration 0.04 µM): 101.25 | remaining enzyme activity (% of control) ([2]; MMP-9; concentration 0.21 µM): 90.43 | remaining enzyme activity (% of control) ([2]; MMP-9; concentration 1.04 µM): 102.01 | remaining enzyme activity (% of control) ([2]; MMP-9; concentration 5.19 µM): 89.02 | remaining enzyme activity (% of control) ([2]; MMP-9; concentration 25.96 µM): 79.56 | remaining enzyme activity (% of control) ([2]; MMP-9; concentration 129.80 µM): 32.87 | remaining enzyme activity (% of control) ([2]; MMP-9; concentration 649.00 µM): 0.00 | IC50 [2, 4]: 80.5 ± 15.2 µM
Structure (SMILES): Cc1cc(=O)[nH]c(-n2nc(C)c(CCC(=O)NCCNC(=O)CSCCNC(=O)c3cncc(O)c3)c2C)n1 [693+828 Linker 24]

remaining activity (%) ([1]; MMP-2, concentration 0.0078 µM): 107.56 | remaining activity (%) ([1]; MMP-2, concentration 0.20 µM): 99.59 | remaining activity (%) ([1]; MMP-2, concentration 0.98 µM): 97.94 | remaining activity (%) ([1]; MMP-2, concentration 4.88 µM): 101.19 | remaining activity (%) ([1]; MMP-2, concentration 24.38 µM): 85.36 | remaining activity (%) ([1]; MMP-2, concentration 121.90 µM): 64.62 | remaining activity (%) ([1]; MMP-2, concentration 609.50 µM): 31.91 | remaining activity (%) ([1]; MMP-2, concentration 0.04 µM): 116.92 | IC50 [1, 3]: 188 ± 25.7 µM | remaining enzyme activity (% of control) ([2]; MMP-9, concentration 0.08 µM): 90.17 | remaining enzyme activity (% of control) ([2]; MMP-9, concentration 0.39 µM): 88.39 | remaining enzyme activity (% of control) ([2]; MMP-9, concentration 1.95 µM): 91.84 | remaining enzyme activity (% of control) ([2]; MMP-9, concentration 9.75 µM): 88.91 | remaining enzyme activity (% of control) ([2]; MMP-9, concentration 48.76 µM): 78.10 | remaining enzyme activity (% of control) ([2]; MMP-9, concentration 243.80 µM): 49.14 | remaining enzyme activity (% of control) ([2]; MMP-9, concentration 1219.00 µM): 0.00 | IC50 [2, 4]: 233 ± 38.3 µM
Structure (SMILES): O=C(Cn1cnc2c(oc3ccccc32)c1=O)NCCCCCCCCNC(=O)c1cncc(O)c1 [182+828 Linker 4]

IC50 [1, 5]: 33.3 µM | IC50 [2, 6]: 35.3 µM
Structure (SMILES): O=C(CSCCNC(=O)c1cncc(O)c1)NCCNC(=O)Cn1cnc2c(oc3ccccc32)c1=O [182_828 24]

More lines, now with the values behind:

Structure (SMILES): Cn1c(O)nc2cc(C(=O)NCCCC/C=C/C(=O)CC(=O)NCC34CC5CC(CC(C5)C3)C4)cnc21 [66+826 Linker 12]
remaining activity (%) ([1]; MMP-2, concentration 0.12 µM): 102.70 | remaining activity (%) ([1]; MMP-2, concentration 0.49 µM): 99.61 | remaining activity (%) ([1]; MMP-2, concentration 1.95 µM): 102.06 | remaining activity (%) ([1]; MMP-2, concentration 7.81 µM): 101.87 | remaining activity (%) ([1]; MMP-2, concentration 31.25 µM): 95.39 | remaining activity (%) ([1]; MMP-2, concentration 125.00 µM): 94.81 | remaining activity (%) ([1]; MMP-2, concentration 500.00 µM): 77.92 | remaining enzyme activity (% of control) ([2]; MMP-9; concentration 0.12 µM): 93.60 | remaining enzyme activity (% of control) ([2]; MMP-9; concentration 0.49 µM): 81.81 | remaining enzyme activity (% of control) ([2]; MMP-9; concentration 1.95 µM): 96.97 | remaining enzyme activity (% of control) ([2]; MMP-9; concentration 7.81 µM): 103.45 | remaining enzyme activity (% of control) ([2]; MMP-9; concentration 31.25 µM): 97.31 | remaining enzyme activity (% of control) ([2]; MMP-9; concentration 125.00 µM): 94.06 | remaining enzyme activity (% of control) ([2]; MMP-9; concentration 500.00 µM): 80.41

Structure (SMILES): Cc1cc(=O)[nH]c(-n2nc(C)c(CCC(=O)NCCNC(=O)CC(=O)/C=C/CCCCNC(=O)c3cncc(O)c3)c2C)n1 [693_828 12]
IC50 [1, 5]: 10 µM | IC50 [2, 6]: 14.8 µM
